Reference: ChEMBL document CHEMBL3714740, “alpha-amino acid derivatives and medicaments containing the same as an active ingredient” (2011)
Calls of active or inactive are those of the source. The calls are words filed in the database; no cut-off is given here.

Legend:
[1] = Antiproliferative activity against human SW620 cells assessed as inhibition of cell proliferation incubated for 4 days by CCK8 assay; assay type: functional, cell-based; details: SW-620, 96 h
DU-145 = assay: Antitumor activity against human DU145 cells xenografted in nude Balb/c mouse assessed as inhibition of tumor volume at 100 mg/kg administered orally using gastric tube once daily for 14 days starting at mean tumor volume of 200 to 250 mm3; assay type: functional, organism-based; details: Prostate
SW-620 = assay: Antitumor activity against human SW620 cells xenografted in nude Balb/c mouse assessed as inhibition of tumor volume at 100 mg/kg administered orally using gastric tube once daily for 17 days starting at mean tumor volume of 200 to 250 mm3; assay type: functional, organism-based

Row | SMILES | IC50 [1] [µM] | inhibition (DU-145) | inhibition (SW-620)
1 | CC(C)(C)C(=O)Nc1cc(NC(C)(C)C(=O)Nc2nc3ccc4[nH]ncc4c3s2)ccc1Cl | 2.7 |  | 
2 | CC(C)(Nc1ccc(Cl)c(OCC(O)CO)c1)C(=O)Nc1nc2c(C(F)(F)F)cc3[nH]ncc3c2s1 (configuration not stated) |  | Active | 
3 | CNC(=O)c1cc(NC2(C(=O)Nc3nc4ccc5[nH]ncc5c4s3)CC2)ccc1Cl |  | Active | Active
4 | CCNC(=O)c1cc(NC(C)(C)C(=O)Nc2nc3c(C(F)(F)F)cc4[nH]ncc4c3s2)ccc1Cl |  | Active | 
5 | CC(C)(Nc1ccc(Cl)cc1)C(=O)Nc1nc2ccc3[nH]ncc3c2s1 |  | Active | Active
